Results on 7 substances are retold here after patent US8101576B2, “Compounds and their effects on feeding behaviour” (priority 2006, dated 2012).

Square brackets hold non-standard residues; d marks the D form. Ends that are not written are not given here.

A short description of this experiment: Inhibition of food intake, subcutaneous injection to fasted rats. Format: in vivo, Wistar rats. As to conditions: over 24 hours. How it is done: Animals: All animal procedures were approved by the British Home Office Animals (Scientific Procedures) Act 1986 (Project License number 70/5516).
Study protocol: C57BL/6 mice (20-35 g) were injected with the peptide under investigation following a 20-hour fast. Wistar rats were injected following a 24-hour fast. […] A pre-weighed quantity of chow was presented immediately after injection.

Turning to “D-His Ala Gln Gly Thr Phe Thr Ser Asp Tyr Ser Lys Tyr Leu Glu Glu Glu Leu Val Lys Tyr Phe Leu Gln Trp Leu Lys Asn Ala Gly Pro Ser Lys Asn Asn Ile Ala ([dH]AQGTFTSDYSKYLEEELVKYFLQWLKNAGPSKNNIA) [PEPTIDE NO: 100]”, under “20 nmoles/kg”, the “Mean cumulative food intake in comparison to saline control” value (shortened to “Mean cumulative food intake”) was “potent and long acting suppression of food intake”; the “food intake in comparison to control group treated with native oxyntomodulin” value (“food intake … with native oxyntomodulin” for short) was “lower than in the control group treated with native oxyntomodulin”.
Consider “D-His Ser Gln Gly Thr Phe Thr Ser Asp Tyr Ser Lys Tyr Leu Glu Gln Glu Ile Val Lys Tyr Phe Ile Gln Trp Leu Lys Asn Ala Gly Pro Ser Lys Asn Asn Ile Ala ([dH]SQGTFTSDYSKYLEQEIVKYFIQWLKNAGPSKNNIA) [PEPTIDE NO: 94]”, for which, where the note is “5 nmoles/kg”, the “Mean cumulative food intake” value is “potent and long acting suppression of food intake”; the “food intake … with native oxyntomodulin” value is on record as “lower than in the control group treated with native oxyntomodulin”.
Consider “D-His Ser Gln Gly Thr Phe Thr Ser Asp Tyr Ser Lys Tyr Leu Glu Gln Glu Leu Val Lys Tyr Phe Ile Gln Trp Leu Lys Asn Ala Gly Pro Ser Lys Asn Asn Ile Ala ([dH]SQGTFTSDYSKYLEQELVKYFIQWLKNAGPSKNNIA) [PEPTIDE NO: 82]”, for which, where the note is “10 nmoles/kg”, the “Mean cumulative food intake” value is “potent and long acting suppression of food intake”; the “food intake … with native oxyntomodulin” value is reported as “lower than in the control group treated with native oxyntomodulin”.
“D-His Ser Gln Gly Thr Phe Thr Ser Asp Tyr Ser Lys Tyr Leu Glu Glu Glu Leu Val Lys Tyr Phe Ile Gln Trp Leu Lys Asn Ala Gly Pro Ser Lys Asn Asn Ile Ala ([dH]SQGTFTSDYSKYLEEELVKYFIQWLKNAGPSKNNIA) [PEPTIDE NO: 58]”: for the setting “10 nmoles/kg”, the “Mean cumulative food intake” value was “potent and long acting suppression of food intake”; the “food intake … with native oxyntomodulin” value was “lower than in the control group treated with native oxyntomodulin”.
In the case of “D-His Ser Gln Gly Thr Phe Thr Ser Asp Tyr Ser Lys Tyr Leu Glu Glu Glu Leu Val Lys Tyr Phe Ile Gln Trp Leu Met Asn Thr Lys Arg Asn Lys Asn Asn Ile Ala ([dH]SQGTFTSDYSKYLEEELVKYFIQWLMNTKRNKNNIA) [PEPTIDE NO: 60]”, where the note is “100 nmoles/kg”, the “Mean cumulative food intake” value was “potent and long acting suppression of food intake”; the “food intake … with native oxyntomodulin” value is given as “lower than in the control group treated with native oxyntomodulin”.
In the case of “D-His Ser Gln Gly Thr Phe Thr Ser Asp Tyr Ser Lys Tyr Leu Glu Glu Glu Leu Val Lys Tyr Phe Leu Gln Trp Leu Lys Asn Ala Gly Pro Ser Lys Asn Asn Ile Ala ([dH]SQGTFTSDYSKYLEEELVKYFLQWLKNAGPSKNNIA) [PEPTIDE NO: 52]”, under “10 nmoles/kg”, the “Mean cumulative food intake” value was “potent and long acting suppression of food intake”; the “food intake … with native oxyntomodulin” value is listed as “lower than in the control group treated with native oxyntomodulin”.
For “His Ser Gln Gly Thr Phe Thr Ser Asp Tyr Ser Lys Tyr Leu Glu Glu Glu Ile Val Lys Tyr Phe ILe Gln Trp Leu Lys Asn Ala Gly Pro Ser Lys Asn Asn Ile Ala (HSQGTFTSDYSKYLEEEIVKYFIQWLKNAGPSKNNIA) [PEPTIDE NO: 22]”, under “3 nmoles/kg”, the “Mean cumulative food intake” value was “potent and long acting suppression of food intake”; the “food intake … with native oxyntomodulin” value is on record as “lower than in the control group treated with native oxyntomodulin”.
